# Where two headings read alike, the source gives them in different places.
# Tests used:
# human platelet = human platelet aggregation in vitro induced by ADP or adrenaline (CPRP); format: cell-based; conditions: 200 s
# Procedure: Samples of human CPRP (citrated platelet-rich plasma) were incubated at 37°C. for 200 sec. with 1/10 volume of saline containing various amount of the compound to be tested. To the mixture was then added ADP (3μMole) or adrenaline (1 μg/ml). Intensity of primary and secondary aggregation was measured with a platelet aggregation meter (Chrono-Log, Model 300).
# Intensity of ADP- or adrenaline-induced aggregation of each sample, which was incubated with the compound, was compared with that of the same sample incubated with saline. The ratio was expressed as a percentage of intensity of aggregation with the compound against one with saline.
# The intensity of primary and secondary aggregation of platelets was measured by the procedure described in H. Yamazaki, T. Sano, et al.; title[Platelet Functions in Thromboembolic Disorders] Thrombosis et Diatheses Haemorrhagica "in press" and the references cited therein.
# aorta of rabbits = test: prevention of cholesterol-induced atherosclerosis in rabbits (surface covered by fatty streaks in the aorta); format: in vivo, albino rabbits; conditions: rabbit aorta; oral 1 mg/Kg daily, 15 weeks, diet with 1% cholesterol; placebo 54.6±5.4
# Procedure: Forty healthy albino rabbits of the same age and of the same family were used in the experiment.
# After the completion of the regimen, the rabbits were killed and the percentage of the surface covered by fatty streaks was measured in each aorta of the rabbits stained with Sundan IV. The percent of the surface covered by fatty streaks in the aorta of the rabbits was measured by the procedure described in T. Shimamoto, F. Numano, T. Fujita; American Heart Journal, 71, 2216 (1966).
# aortic wall of rabbits = test: regression of preestablished cholesterol-induced atherosclerosis in rabbits (cholesterol content of the aortic wall); format: in vivo, albino rabbits; conditions: oral 1 mg/Kg daily, head prints (μg)
# Source text: For the regressive test, 50 healthy albino rabbits were fed with a diet containing 1% cholesterol for 15 weeks. Five rabbits were killed at the 15th week of the cholesterol feeding and the remaining 45 rabbits were divided into 3 groups. […] Five each of the rabbits of the 3 groups were killed after 6, 10 and 20 weeks, respectively. The total contents of cholesterol in the aortic wall were estimated by gas chromatography, the results of which are shown in the Table III.
# 1. The total content of cholesterol in the aortic wall was measured by the procedure described in T. Shimamoto, F. Numano, T. Fujita et al.; Asian med. Journal, 8. 12 (1965) 2. […] 3. The total chloesterol contents indicated in Table III were shown in μg per one mg of the dried aortic wall. The value in the Table is the average figure for 5 rabbits
# [1] = test system: cyclic AMP phosphodiesterase; test: inhibition of cyclic AMP phosphodiesterase, human platelet; format: biochemical; conditions: 50% inhibition of cyclic AMP phosphodiesterase; read-out: I50, Platelet (human)
# Procedure: (§1) The procedure of the experiment was carried out in accordance with the method described in H. Hidaka and M. Shibuya: title "A new assay of cyclic nucleotide phosphodiesterase and its application to humans", Biochemical Medicine, (in press).
# [2] = target: cyclic AMP phosphodiesterase; test: inhibition of cyclic AMP phosphodiesterase, aortic wall intima (rabbit); format: biochemical; conditions: 50% inhibition of cyclic AMP phosphodiesterase; read-out: I50, Aortic Wall, Intima (rabbit)
# Procedure: as §1
# [3] = target: cyclic AMP phosphodiesterase; test: inhibition of cyclic AMP phosphodiesterase, aortic wall media (rabbit); format: biochemical; conditions: 50% inhibition of cyclic AMP phosphodiesterase; read-out: I50, Aortic Wall, Media (rabbit)
# Procedure: as §1
# [4] = test system: spontaneously hypertensive rats; test: hypotensive effect in spontaneously hypertensive rats; format: in vivo, rat
# Source text: The present compounds have a unique hypotensive effect in spontaneously hypertensive rats. The spontaneously hypertensive rats, abbreviated as SH rats, are produced by selective breeding of spontaneously hypertensive rats and continuous inbreeding with hypertensive mates, and they might be acknowledged as genetically hypertensive. It is believed that SH rats have a striking similarity to human essential hypertension and their reactions can be extrapolated to this morbid condition.
# In the blood pressure test, SH rats weighing 210 - 250 g and aged 13-15 weeks were used, and the compounds tested were administered intraperitoneally. Each value in the Table V hows an average figure for three rats.
# in vivo = conditions: mouse, oral, mice
# [5] = 40 μg/ml, intensity with compound vs saline, read-out: Inhibition ratio, primary aggregation, ADP 3 μM
# [6] = 40 μg/ml, intensity with compound vs saline, read-out: Inhibition ratio, secondary aggregation, ADP 3 μM
# [7] = read-out: Inhibition ratio, primary aggregation, Adrenaline 1μg/ml
# [8] = read-out: Inhibition ratio, secondary aggregation, Adrenaline 1μg/ml
# [9] = 3.1 mg/Kg intraperitoneally, 1 hr
# [10] = 3.1 mg/Kg intraperitoneally, 3 hr
# [11] = 3.1 mg/Kg intraperitoneally, 6 hr
# [12] = 3.1 mg/Kg intraperitoneally, 24 hr
# [13] = 3.1 mg/Kg intraperitoneally, 48 hr
# [14] = 12.5 mg/Kg intraperitoneally, 1 hr
# [15] = 12.5 mg/Kg intraperitoneally, 3 hr
# [16] = 12.5 mg/Kg intraperitoneally, 6 hr
# [17] = 12.5 mg/Kg intraperitoneally, 24 hr
# [18] = 12.5 mg/Kg intraperitoneally, 48 hr
# [19] = 50 mg/Kg intraperitoneally, 1 hr
# [20] = 50 mg/Kg intraperitoneally, 3 hr
# [21] = 50 mg/Kg intraperitoneally, 6 hr
# [22] = 50 mg/Kg intraperitoneally, 24 hr
# [23] = 50 mg/Kg intraperitoneally, 48 hr
# [24] = 50 mg/Kg intraperitoneally, before dosing
# [25] = 80 μg/ml, intensity with compound vs saline, read-out: Inhibition ratio, primary aggregation, ADP 3 μM
# [26] = 80 μg/ml, intensity with compound vs saline, read-out: Inhibition ratio, secondary aggregation, ADP 3 μM
# [27] = 300 μg/ml, intensity with compound vs saline, read-out: Inhibition ratio, primary aggregation, ADP 3 μM
# [28] = 300 μg/ml, intensity with compound vs saline, read-out: Inhibition ratio, secondary aggregation, ADP 3 μM
smiles,measurement,setting,value
"CCOC(=O)c1c(C)cc2c(CO)n[nH]c(=O)c2c1C [6,8-dimethyl-7-ethoxycarbonyl-4-hydroxymethyl-1-phthalazone]",activity at 2.5 µg/mL,"human platelet; 2.5 μg/ml, intensity with compound vs saline, read-out: Inhibition ratio, primary aggregation, ADP 3 μM",91.7 ± 8.3%
same,activity at 2.5 µg/mL,"human platelet; 2.5 μg/ml, intensity with compound vs saline, read-out: Inhibition ratio, secondary aggregation, ADP 3 μM",96 ± 8.7%
same,activity at 5 µg/mL,"human platelet; 5 μg/ml, intensity with compound vs saline, read-out: Inhibition ratio, primary aggregation, ADP 3 μM",93.3 ± 8.9%
same,activity at 5 µg/mL,"human platelet; 5 μg/ml, intensity with compound vs saline, read-out: Inhibition ratio, secondary aggregation, ADP 3 μM",59.8 ± 11.3%
same,activity at 10 µg/mL,"human platelet; 10 μg/ml, intensity with compound vs saline, read-out: Inhibition ratio, primary aggregation, ADP 3 μM",90.6 ± 3.8%
same,activity at 10 µg/mL,"human platelet; 10 μg/ml, intensity with compound vs saline, read-out: Inhibition ratio, secondary aggregation, ADP 3 μM",49.9 ± 6.9%
same,activity at 20 µg/mL,"human platelet; 20 μg/ml, intensity with compound vs saline, read-out: Inhibition ratio, primary aggregation, ADP 3 μM",93.1 ± 8.2%
same,activity at 20 µg/mL,"human platelet; 20 μg/ml, intensity with compound vs saline, read-out: Inhibition ratio, secondary aggregation, ADP 3 μM",56.2 ± 6.3%
same,activity at 40 µg/mL,human platelet; [5],68.5 ± 5.2%
same,activity at 40 µg/mL,human platelet; [6],41.9 ± 2.2%
same,activity at 2.5 µg/mL,human platelet; [7],88.5 ± 3.1%
same,activity at 5 µg/mL,human platelet; [7],82.4 ± 3%
same,activity at 10 µg/mL,human platelet; [7],89.1 ± 7.3%
same,activity at 20 µg/mL,human platelet; [7],97.5 ± 7.5%
same,activity at 2.5 µg/mL,human platelet; [8],52.8 ± 7.5%
same,activity at 5 µg/mL,human platelet; [8],52.4 ± 7.3%
same,activity at 10 µg/mL,human platelet; [8],57.1 ± 16%
same,activity at 20 µg/mL,human platelet; [8],99.6 ± 13.2%
same,Percent of surface covered by fatty streaks,aorta of rabbits,16.2±4.3%
same,"Cholesterol content (aortic wall, total)","aortic wall of rabbits; 6 weeks, placebo 32.1±3.6",20.8±3.1 μg/mg dry weight
same,"Cholesterol content (aortic wall, total)","aortic wall of rabbits; 10 weeks, placebo 33.8±3.0",9.7±4.2 μg/mg dry weight
same,"Cholesterol content (aortic wall, total)","aortic wall of rabbits; 20 weeks, placebo 29.5±5.4",4.2±1.8 μg/mg dry weight
same,IC50,[1],4.1 µM
same,IC50,[2],1.6 µM
same,IC50,[3],24 µM
same,Blood Pressure,[4]; [9],170
same,Depression % (blood pressure),[4]; [9],1.7%
same,Blood Pressure,[4]; [10],138
same,Depression % (blood pressure),[4]; [10],20.2%
same,Blood Pressure,[4]; [11],110
same,Depression % (blood pressure),[4]; [11],36.4%
same,Blood Pressure,[4]; [12],135
same,Depression % (blood pressure),[4]; [12],22.0%
same,Blood Pressure,[4]; [13],150
same,Depression % (blood pressure),[4]; [13],13.3%
same,Blood Pressure,"[4]; 3.1 mg/Kg intraperitoneally, before dosing",173
same,Blood Pressure,[4]; [14],173
same,Depression % (blood pressure),[4]; [14],1.1%
same,Blood Pressure,[4]; [15],155
same,Depression % (blood pressure),[4]; [15],11.4%
same,Blood Pressure,[4]; [16],120
same,Depression % (blood pressure),[4]; [16],28.6%
same,Blood Pressure,[4]; [17],142
same,Depression % (blood pressure),[4]; [17],18.9%
same,Blood Pressure,[4]; [18],155
same,Depression % (blood pressure),[4]; [18],11.4%
same,Blood Pressure,"[4]; 12.5 mg/Kg intraperitoneally, before dosing",175
same,Blood Pressure,[4]; [19],165
same,Depression % (blood pressure),[4]; [19],2.9%
same,Blood Pressure,[4]; [20],132
same,Depression % (blood pressure),[4]; [20],22.4%
same,Blood Pressure,[4]; [21],110
same,Depression % (blood pressure),[4]; [21],35.3%
same,Blood Pressure,[4]; [22],145
same,Depression % (blood pressure),[4]; [22],14.7%
same,Blood Pressure,[4]; [23],152
same,Depression % (blood pressure),[4]; [23],10.6%
same,Blood Pressure,[4]; [24],170
CC(=O)Oc1ccccc1C(=O)O [Acetylsalicylic acid],activity at 40 µg/mL,human platelet; [5],98.9 ± 3.4%
same,activity at 40 µg/mL,"human platelet; 40 μg/ml, intensity with compound vs saline, read-out: Inhibition ratio, primary aggregation, Adrenaline 1μg/ml",106 ± 3.3%
same,activity at 40 µg/mL,human platelet; [6],78 ± 9.9%
same,activity at 40 µg/mL,"human platelet; 40 μg/ml, intensity with compound vs saline, read-out: Inhibition ratio, secondary aggregation, Adrenaline 1μg/ml",45 ± 7.8%
same,activity at 80 µg/mL,human platelet; [25],95.7 ± 1.8%
same,activity at 80 µg/mL,"human platelet; 80 μg/ml, intensity with compound vs saline, read-out: Inhibition ratio, primary aggregation, Adrenaline 1μg/ml",95.6 ± 5.2%
same,activity at 80 µg/mL,human platelet; [26],70.2 ± 10.1%
same,activity at 80 µg/mL,"human platelet; 80 μg/ml, intensity with compound vs saline, read-out: Inhibition ratio, secondary aggregation, Adrenaline 1μg/ml",46.5 ± 7.9%
same,activity at 300 µg/mL,human platelet; [27],109 ± 3.6%
same,activity at 300 µg/mL,"human platelet; 300 μg/ml, intensity with compound vs saline, read-out: Inhibition ratio, primary aggregation, Adrenaline 1μg/ml",108 ± 2.6%
same,activity at 300 µg/mL,human platelet; [28],75.5 ± 5.9%
same,activity at 300 µg/mL,"human platelet; 300 μg/ml, intensity with compound vs saline, read-out: Inhibition ratio, secondary aggregation, Adrenaline 1μg/ml",62.7 ± 10.7%
O=c1[nH]nc(CO)c2ccccc12 [4-hydroxymethyl-1-phthalazone],activity at 40 µg/mL,human platelet; [5],86.2 ± 2.5%
same,activity at 40 µg/mL,human platelet; [6],72 ± 6.8%
same,activity at 80 µg/mL,human platelet; [25],82.4 ± 3.2%
same,activity at 80 µg/mL,human platelet; [26],64.9 ± 6.7%
same,activity at 300 µg/mL,human platelet; [27],84.5 ± 2%
same,activity at 300 µg/mL,human platelet; [28],68.3 ± 3.8%
same,activity at 40 µg/mL,human platelet; [7],98.8 ± 5.9%
same,activity at 80 µg/mL,human platelet; [7],92.3 ± 6%
same,activity at 300 µg/mL,human platelet; [7],85.4 ± 3.1%
same,activity at 40 µg/mL,human platelet; [8],85.9 ± 10.1%
same,activity at 80 µg/mL,human platelet; [8],69.2 ± 7.2%
same,activity at 300 µg/mL,human platelet; [8],60.2 ± 8%
same,Percent of surface covered by fatty streaks,aorta of rabbits,36.8±5.2%
same,Blood Pressure,[4]; [19],178
same,Blood Pressure,[4]; [20],179
same,Blood Pressure,[4]; [21],180
same,Blood Pressure,[4]; [22],182
same,Blood Pressure,[4]; [23],184
same,Blood Pressure,[4]; [24],183
same,hypotensive effect (in words),[4]; intraperitoneal or oral doses up to 50 mg/Kg,did not exhibit a significant hypotensive effect
same,LD50,in vivo,4000 mg/kg

# — patent US3963716A, “Novel 1-phthalazone derivative, a process for its preparation and a pharmaceutical composition containing it” (priority 1973, dated 1976)
